ChEMBL document CHEMBL3132775, “Design, synthesis and biochemical investigation, by in vitro luciferase reporter system, of peptide nucleic acids as new inhibitors of miR-509-3p involved in the regulation of cystic fibrosis disease-gene expression” (Medchemcomm, 2014)
Calls of active or inactive are those of the source. The rule behind the calls is not given here.

Assays:
A549 [1] = assay: Inhibition of miR-509-3p (unknown origin) transfected in human A549 cells at 10 to 50 uM by dual luciferase reporter gene assay; type: cell-based
A549 [2] = assay: Inhibition of miR-509-3p (unknown origin) transfected in human A549 cells at 100 uM after 12 hrs by fluorescence microscopy; type: cell-based
[3] = Binding affinity to miR-509-3p (unknown origin) assessed as heteroduplex formation by CD spectra analysis
[4] = Binding affinity to miR-509-3p (unknown origin) assessed as apparent melting temperature by UV-spectrophotometeric analysis
[5] = Binding affinity to miR-509-3p (unknown origin) assessed as heteroduplex formation at 1:15 and 1:5 ratio after 2 hrs by EMSA
A549 [6] = assay: Inhibition of miR-509-3p (unknown origin) transfected in human A549 cells assessed as luciferase activity at 50 uM by dual luciferase reporter gene assay; type: cell-based; design: scale not given: the % may be the effect or the level left
A549 [7] = assay: Inhibition of miR-509-3p (unknown origin) transfected in human A549 cells by dual luciferase reporter gene assay; type: cell-based

Activity [3] | Tm(app) [4] | Activity [5] | SMILES | inhibition (A549 [1]) | inhibition (A549 [2]) | Activity (A549 [6]) | inhibition (A549 [7])
Active | 80 °C | Active | Cc1cn(CC(=O)N(CCNC(=O)CN(CCNC(=O)CN(CCNC(=O)CN(CCNC(=O)CN(CCNC(=O)CN(CCNC(=O)CN(CCNC(=O)CN(CCNC(=O)CN(CCNC(=O)CN(CCNC(=O)CN(CCNC(=O)CN(CCNC(=O)COCCOCCNC(=S)Nc2ccc(C3c4ccc(O)cc4Oc4cc(O)ccc43)c(C(=O)O)c2)C(=O)Cn2cnc3c(N)ncnc32)C(=O)Cn2cnc3c(=O)[nH]c(N)nc32)C(=O)Cn2cnc3c(N)ncnc32)C(=O)Cn2ccc(N)nc2=O)C(=O)Cn2cnc3c(=O)[nH]c(N)nc32)C(=O)Cn2cc(C)c(=O)[nH]c2=O)C(=O)Cn2cnc3c(N)ncnc32)C(=O)Cn2ccc(N)nc2=O)C(=O)Cn2ccc(N)nc2=O)C(=O)Cn2cnc3c(N)ncnc32)C(=O)Cn2cnc3c(N)ncnc32)CC(=O)NCCN(CC(=O)NCCN(CC(=O)N[C@@H](CCCCN)C(=O)N[C@@H](CCCCN)C(N)=O)C(=O)Cn2cnc3c(N)ncnc32)C(=O)Cn2ccc(N)nc2=O)c(=O)[nH]c1=O | Active | inactive | – | –
– | – | – | Cc1cn(CC(=O)N(CCNC(=O)CN(CCNC(=O)CN(CCNC(=O)CN(CCNC(=O)CN(CCNC(=O)CN(CCNC(=O)CN(CCNC(=O)COCCOCCNC(=S)Nc2ccc(C3c4ccc(O)cc4OC4=CC(=O)C=CC43)c(C(=O)O)c2)C(=O)Cn2ccc(N)nc2=O)C(=O)Cn2cnc3c(N)ncnc32)C(=O)Cn2ccc(N)nc2=O)C(=O)Cn2cnc3c(=O)[nH]c(N)nc32)C(=O)Cn2cnc3c(=O)[nH]c(N)nc32)C(=O)Cn2cnc3c(N)ncnc32)CC(=O)NCCN(CC(=O)NCCN(CC(=O)NCCN(CC(=O)NCCN(CC(=O)NCCN(CC(=O)NCCN(CC(=O)NCCN(CC(=O)NCC(=O)NC(COP(=O)(O)O)C(=O)NC(COP(=O)(O)O)C(=O)NCC(N)=O)C(=O)Cn2cc(C)c(=O)[nH]c2=O)C(=O)Cn2cnc3c(=O)[nH]c(N)nc32)C(=O)Cn2ccc(N)nc2=O)C(=O)Cn2ccc(N)nc2=O)C(=O)Cn2cnc3c(=O)[nH]c(N)nc32)C(=O)Cn2cnc3c(N)ncnc32)C(=O)Cn2cnc3c(=O)[nH]c(N)nc32)c(=O)[nH]c1=O (stereo unspecified) | – | – | < 40% | –
Active | 74 °C | Active | Cc1cn(CC(=O)N(CCNC(=O)CN(CCNC(=O)CN(CCNC(=O)CN(CCNC(=O)CN(CCNC(=O)CN(CCNC(=O)CN(CCNC(=O)CN(CCNC(=O)CN(CCNC(=O)CN(CCNC(=O)CN(CCNC(=O)CN(CCNC(=O)COCCOCCNC(=S)Nc2ccc(C3c4ccc(O)cc4OC4=CC(=O)C=CC43)c(C(=O)O)c2)C(=O)Cn2cnc3c(N)ncnc32)C(=O)Cn2cnc3c(=O)[nH]c(N)nc32)C(=O)Cn2cnc3c(N)ncnc32)C(=O)Cn2ccc(N)nc2=O)C(=O)Cn2cnc3c(=O)[nH]c(N)nc32)C(=O)Cn2cc(C)c(=O)[nH]c2=O)C(=O)Cn2cnc3c(N)ncnc32)C(=O)Cn2ccc(N)nc2=O)C(=O)Cn2ccc(N)nc2=O)C(=O)Cn2cnc3c(N)ncnc32)C(=O)Cn2cnc3c(N)ncnc32)CC(=O)NCCN(CC(=O)NCCN(CC(=O)NCC(=O)NC(COP(=O)(O)O)C(=O)NC(COP(=O)(O)O)C(=O)NCC(N)=O)C(=O)Cn2cnc3c(N)ncnc32)C(=O)Cn2ccc(N)nc2=O)c(=O)[nH]c1=O (stereo unspecified) | – | inactive | – | Dose-dependent effect
